# Assay results reported in patent US20250002535A1, “PEPTIDE HYDROGEL COMPRISING HYDROPHILIC AZIDE-CONTAINING AMINO ACID AND ITS USE” (The United States of America, as represented by the …, priority 2023, published 2025).
# Numbered stars: 1 amine (or outer) side, 2 acyl side, 3 side chain; on linkers, the order of the positions; unused ones are H or OH. Square brackets hold non-standard residues; d marks the D form. Peptide text beside a SMILES is read from it. X1 = [N-]=[N+]=NCCNCC[C@H](N[*:1])C(=O)[*:2]; Lys(N3) = [N-]=[N+]=NCCCC[C@H](N)C(=O)O
# Legend:
# [1] = intrinsic hydrophilicity/hydrophobicity coefficient ΔtR(Gly) by RP-HPLC (procedure of Hodges et al.); format: physicochemical; settings: RP-HPLC retention of guest-residue peptide versus Gly standard; positive = more hydrophobic than Gly
# Protocol: We then determined the intrinsic hydrophilicity/hydrophobicity coefficients (ΔtR(Gly)) for residue 1, ^N3K, and Lys according to the procedure of Hodges et al. to gain comparative insight into the hydrophilic nature of the new residue. […] Amino acids with side-chains more hydrophobic than Gly have positive ΔtR(Gly) values, and vice-versa.
# RP-HPLC was performed with a solvent system of 0.1% TFA in Milli-Q H2O (Standard A) and 0.1% TFA in 9:1 CH3CN/H2O (Standard B). Analytical RPHPLC was performed on an Agilent 1200 series HPLC, using a Vydac 218TP C18 column (250×4.6 mm, 5 μm), with a linear gradient from 0 to 100% B at a rate of 1% B per min, at a flow rate of 0.25 mL/min and a column temperature of 40° C.
# [2] = SPAAC ligation kinetics with BCN, second order conditions, NMR; settings: methanol at 25° C.
# Protocol: The reaction kinetics of amino acid 1 in SPAAC with two strained cyclooctynes, DBCO and BCN, were determined in comparison with ^N3K. First, peptides 12 and 13, which contain residue 1 and ^N3K respectively, were independently ligated to PEG-functionalized DBCO. Rates were determined under pseudo-first order conditions by UV-vis spectroscopy at 308 nm (FIGS. 3A-3C, 7, 8). The calculated second order rate constant for peptide 12 was 0.34 M^−1 s^−1 in HBS buffer, pH 7.4 at 25° C., which is similar to previously reported rate constants for other azides. The ligation rate of peptide 12 is slightly slower than peptide 13 ([…]), which may be due to hydrophobic interactions between the ^N3K side-chain and the aromatic DBCO, facilitating ligation. […] We then determined the reaction rate of Boc-protected amino acid 2 itself with BCN in methanol at 25° C. […]
# Solutions of BCN and amino acids were prepared in MeOD. The reaction between BCN and amino acids was measured under second order conditions using NMR. […] The reaction was monitored by ^1H NMR. Concentration of product ([P]) at each time point was determined by the integration of red proton in the product using blue proton as internal standard. The value of k2t was calculated by equation 1. With Prism software, second order rate constants, k2, was calculated by linear regression between k2t and time. […]
# [3] = solubility in water by UV-vis spectroscopy before and after centrifugation; format: physicochemical; settings: 20 mg/mL was the highest concentration tested
# Protocol: Residue 1's ability to enhance solubility was tested via the amphiphilic peptide 16, which contains 7 copies of 1 along with 9 hydrophobic Val residues. Here, we directly measured solubility via UV-vis spectroscopy of aqueous preparations of peptides before and after centrifugation (FIG. 2B). Peptide 16 (FIG. 5) was fully soluble in water at 20 mg/mL, the highest concentration tested, as was its Lys-containing control peptide 18. […] Further, peptides 16 and 18 had nearly identical RP-HPLC chromatograms (FIG. 6) indicating similar hydrophilic character. In contrast, the ^N3K-containing peptide 17 was completely insoluble in water at only 1 mg/mL, showing extensive light scattering before centrifugation and no scattering after, due to sedimentation of aggregates.
# [4] = solubility of peptide powder in solvents; format: physicochemical
# Description: Peptide 17: Insoluble powder in water and acetonitrile. It is soluble in Trifluoroethanol.
SMILES,intrinsic hydrophilicity/hydrophobicity coefficient ΔtR(Gly) [1],solubility [3] [mg/mL],further results
NCCCC[C@H](N)C(=O)O [Lys],−0.04,,
[N-]=[N+]=NCCNCC[C@H](N)C(=O)O [compound 1],1.4,,
"CC(C)(C)OC(=O)N(CCN=[N+]=[N-])CC[C@H](NC(=O)OCC1c2ccccc2-c2ccccc21)C(=O)O [compound 2, (S)-2-((((9H-fluoren-9-yl)methoxy)carbonyl)amino)-4-((2-azidoethyl)(tertbutoxycarbonyl)-amino)butanoic acid]",,,second order rate constant k2 with BCN [2]: 0.28 M⁻¹ s⁻¹
"CC(C)[C@H](N)C(=O)N[C@@H](CCNCCN=[N+]=[N-])C(=O)N[C@H](C(=O)N[C@@H](CCNCCN=[N+]=[N-])C(=O)N[C@H](C(=O)N[C@@H](CCNCCN=[N+]=[N-])C(=O)N[C@H](C(=O)N[C@@H](CCNCCN=[N+]=[N-])C(=O)N[C@H](C(=O)N1CCC[C@@H]1C(=O)N1CCC[C@H]1C(=O)N[C@H](C(=O)N[C@@H](CCNCCN=[N+]=[N-])C(=O)N[C@H](C(=O)N[C@@H](CCC(=O)O)C(=O)N[C@H](C(=O)N[C@@H](CCNCCN=[N+]=[N-])C(=O)N[C@H](C(=O)N[C@@H](CCNCCN=[N+]=[N-])C(=O)N[C@H](C(N)=O)C(C)C)C(C)C)C(C)C)C(C)C)[C@@H](C)O)C(C)C)C(C)C)C(C)C)C(C)C [peptide 16, VZVZVZVZV^DPPTZVEVZVZV-NH2] (H-V[X1]V[X1]V[X1]V[X1]V[dP]PT[X1]VEV[X1]V[X1]V-NH2)",,≥ 20,
CC(C)[C@H](N)C(=O)N[C@@H](CCCCN=[N+]=[N-])C(=O)N[C@H](C(=O)N[C@@H](CCCCN=[N+]=[N-])C(=O)N[C@H](C(=O)N[C@@H](CCCCN=[N+]=[N-])C(=O)N[C@H](C(=O)N[C@@H](CCCCN=[N+]=[N-])C(=O)N[C@H](C(=O)N1CCC[C@@H]1C(=O)N1CCC[C@H]1C(=O)N[C@H](C(=O)N[C@@H](CCCCN=[N+]=[N-])C(=O)N[C@H](C(=O)N[C@@H](CCC(=O)O)C(=O)N[C@H](C(=O)N[C@@H](CCCCN=[N+]=[N-])C(=O)N[C@H](C(=O)N[C@@H](CCCCN=[N+]=[N-])C(=O)N[C@H](C(N)=O)C(C)C)C(C)C)C(C)C)C(C)C)[C@@H](C)O)C(C)C)C(C)C)C(C)C)C(C)C [peptide 17] (H-V[Lys(N3)]V[Lys(N3)]V[Lys(N3)]V[Lys(N3)]V[dP]PT[Lys(N3)]VEV[Lys(N3)]V[Lys(N3)]V-NH2),,< 1,solubility in Trifluoroethanol [4]: soluble; solubility in water and acetonitrile [4]: Insoluble
CC(C)[C@H](N)C(=O)N[C@@H](CCCCN)C(=O)N[C@H](C(=O)N[C@@H](CCCCN)C(=O)N[C@H](C(=O)N[C@@H](CCCCN)C(=O)N[C@H](C(=O)N[C@@H](CCCCN)C(=O)N[C@H](C(=O)N1CCC[C@@H]1C(=O)N1CCC[C@H]1C(=O)N[C@H](C(=O)N[C@@H](CCCCN)C(=O)N[C@H](C(=O)N[C@@H](CCC(=O)O)C(=O)N[C@H](C(=O)N[C@@H](CCCCN)C(=O)N[C@H](C(=O)N[C@@H](CCCCN)C(=O)N[C@H](C(N)=O)C(C)C)C(C)C)C(C)C)C(C)C)[C@@H](C)O)C(C)C)C(C)C)C(C)C)C(C)C [peptide 18] (H-VKVKVKVKV[dP]PTKVEVKVKV-NH2; N-terminus assumed),,≥ 20,
